In US12005128B1, “Near infrared small molecule probes for the detection of cellular senescence” (UNM Rainforest Innovations, priority 2019, dated 2024):

Columns and labels:
[1] = system: MCF7 cells; test: Western blot of cell lysates for β-gal, p16 and p21; format: cell-based, human
From the text: FIG. 22 is a western blot of β-gal, p16, and p21 expression in MCF7 cells without drug treatment, with CPT or radiation treatment. ***P<0.001, **P<0.005.
FIG. 23 is a quantification of FIG. 22.
(§1) Cell cycle inhibitors p21 and p16 are often expressed by senescent cells^1. Therefore, we examined the cell lysates of all cell samples from the imaging studies using Western blot (FIGS. 20-24). […] In addition to HeLa cells, MCF7 cells also expressed higher levels of p16 and p21 upon CPT treatment (FIGS. 22, 23). The Western blot results confirmed the senescent state of these drug or radiation treated cells used in the imaging experiments.

[2] = system: HeLa tumors; test: HeLa tumor growth with and without CPT treatment; format: in vivo; conditions: HeLa xenografted mice, systemic treatment
From the text: (The tumors of control group reached the maximum volume limitation and were imaged and euthanized.)

[3] = system: HeLa cells; test: Western blot of cell lysates for β-gal, p16 and p21; format: cell-based, human
From the text: FIG. 20 is a western blot of cell lysates of β-gal, p16, and p21 expression in HeLa cells without drug treatment, with CPT or radiation treatment. ***P<0.001, **P<0.005.
FIG. 21 is a quantification of FIG. 20.
as §1

[4] = system: β-gal; conditions: cited from earlier work
[5] = system: HeLa cells; test: Imaging of β-gal in senescent and normal HeLa cells by NIR-BG1 and NIR-BG2; format: cell-based, human; conditions: for NIR signal in normal cells: normal HeLa cells
[6] = system: CT26.CL25 cells; test: Fluorescence microscope imaging of LacZ(+) cells by NIR-BG1 and NIR-BG2; format: cell-based, mouse
From the text: (§2) In order to further verify that our probe can specifically detect β-gal in cells, CT26.CL25 cells were imaged with our probes and compared with the CT26.WT cells.

[7] = system: CT26.WT cells; test: Fluorescence microscope imaging of wild type cells by NIR-BG1 and NIR-BG2; format: cell-based, mouse
From the text: as §2

[8] = system: HeLa tumors; test: HeLa xenografts imaging of senescence by NIR-BG1 and NIR-BG2; format: in vivo, mice; conditions: for fluorescence of senescent tumor relative to normal tumor: CPT vs saline, quantification of optical imaging; for fluorescence of senescent tumor relative to normal tumor / fluorescence of CPT treated tumor compared to saline treated tumor: tail vein injection
Protocol: HeLa xenografts imaging was successfully performed to further evaluate the capability of NIR-BG1 and NIR-BG2 to visualize senescence in vivo. HeLa tumor-bearing mice were treated with CPT or saline to induce the senescent cancer cells. […] Ex vivo imaging and quantitative analysis of the tumors and organs further confirmed the in vivo imaging results.

[9] = system: CT26.WT cells; test: Confocal fluorescence microscopy, wild type control cells; format: cell-based, mouse; conditions: after 4-hour incubation
Protocol: (§6) In order to see whether our NIR-BG probe can be used for β-gal detection in live cells, we chose an engineered cell line that stably express LacZ(+), the gene that encodes β-gal. CT26.CL25, a mouse colon fibroblast carcinoma cell line that express β-gal, was therefore used in our initial live cell experiments. […] Cell samples after incubating with our NIR-BG probe were analyzed using flow cytometry (FIG. 13-15) and confocal microscopy (not shown).

[10] = system: HeLa tumors; test: Fluorescence imaging of chemotherapy-induced senescence in HeLa xenografts (NIR-BG); format: in vivo, mice; conditions: 675 nm excitation and 720 nm emission
Protocol: We then moved on to HeLa xenografted mice models to see whether probe NIR-BG could visualize chemotherapy-induced senescence in tumors. (FIGS. 26-28) Tumor-bearing mice were first systemically treated with CPT or saline before the probe NIR-BG was injected. […] We were delighted to find that NIR-BG behaved similarly in the drug-treated mice (with drug-induction triggered expression of β-gal) to the CT26 tumor models (with genetically expressed β-gal). […] While not depicted, resected intact whole tumor staining, histochemical staining with X-gal and immunofluorescent staining of tumor tissue with antibodies against β-gal further confirmed the probe activation in senescent tumors.

[11] = system: MCF7 cells; test: Flow cytometry detection of senescence in drug or radiation treated cancer cells; format: cell-based, human
Protocol: FIG. 18 is a graph showing Flow cytometry of MCF7 cells without treatment, or with CPT, CPT/CHX, or radiation treatment. Probe concentration, 10 μM. λex=640 nm; PerCP bandpass filter at 675/25 nm. ***P<0.001.
(§3) With the confidence of our probe being able to detect β-gal in live cells, we moved further to evaluate whether it could differentiate senescent cells and normal cells. Human cervical cancer cells (HeLa) and metastatic breast cancer cells (MCF7), were used in all four groups of cells evaluated. Senescence in HeLa and MCF7 cells were induced using camptothecin (CPT), an inhibitor of DNA topoisomerase I that could cause lethal DNA strand breaks^59. […] Radiation therapy is another effective method for cancer treatment in clinic; it can also induce cell cycle arrest leading to senescence. All four groups of cells, with no drug treatment, with CPT treatment, with both CPT and CHX treatment, or with 10 Gy radiation treatment, were then incubated with our NIR-BG probe, followed by flow cytometry (FIGS. 16-19).

[12] = system: HeLa cells; test: as above; format: cell-based, human
Protocol: FIG. 16 is a graph showing detection of senescence in human cancer cells via flow cytometry of HeLa cells without treatment, or with CPT, CPT/CHX, or radiation treatment. Probe concentration, 10 μM. λex=640 nm; PerCP bandpass filter at 675/25 nm. ***P<0.001.
as §3

[13] = system: CT26.WT cells; test: Flow cytometry, negative control cells; format: cell-based, mouse; conditions: same treatment, probe 10 μM, λex=640 nm
Protocol: FIG. 14 is a graph showing flow cytometry detection of negative control CT26.WTcells probe (10 μM), λex=640 nm.
(§4) FIG. 15 depicts the quantification of the mean fluorescence intensity in FIGS. 13 and 14.

[14] = system: CT26.CL25 and CT26.WT tumors; test: Fluorescence imaging of CT26 tumors with and without active β-gal; format: in vivo, mice
From the text: In a preliminary experiment, we used the genetically modified mice colon cancer cell line CT26 to determine whether NIR-BG could differentiate tumors with and without active β-gal (Not shown). […] We also confirmed β-gal expression in resected whole tumor and tumor slides (Not shown).

[15] = system: CT26.CL25 cells; test: Confocal fluorescence microscopy of LacZ(+) live cells; format: cell-based, mouse
Protocol: as §6

[16] = system: HeLa cells; test: Confocal microscopy of normal and senescent cells; format: cell-based, human
From the text: (§5) Since SABG is localized in the lysosome, we then performed confocal microscopy of the normal and senescent HeLa or MCF7 cells (Not shown). […] X-gal staining also verified the existence of SABG in cells after chemotherapy and radiation therapy.

[17] = system: MCF7 cells; test: Confocal microscopy of normal and senescent cells; format: cell-based, human
From the text: as §5

[18] = system: β-galactosidase
From the text: FIG. 25A is absorbance and emission spectra of the unactivated NIR-BG probe by β-galactosidase.
FIG. 25B is absorbance and emission spectra of the activated NIR-BG probe by β-galactosidase.

[19] = system: β-gal in LacZ(+) cells (CT26.CL25); test: Flow cytometry detection of β-gal in LacZ(+) live cells; format: cell-based, mouse; conditions: CT26.CL25, 1 hour and 4 hours, probe 10 μM, λex=640 nm
Protocol: FIG. 13 is a graph showing flow cytometry detection of β-gal by the NIR-BG probe in LacZ(+) cells (CT26.CL25) probe (10 μM), λex=640 nm.
as §4

[20] = system: CT26.CL25 cells
Protocol: (§7) In order to see whether our NIR-BG probe can be used for β-gal detection in live cells, we chose an engineered cell line that stably express LacZ(+), the gene that encodes β-gal. […] Cell samples after incubating with our NIR-BG probe were analyzed using flow cytometry (FIG. 13-15) and confocal microscopy (not shown).

[21] = system: CT26.WT cells
Protocol: as §7

For CC[C@@]1(O)C(=O)OCc2c1cc1n(c2=O)Cc2cc3ccccc3nc2-1 [CPT, camptothecin], the “p16 and p21 expression upon treatment” value [1] was “higher levels”, the “β-gal levels compared with the control cells” value [1] was “elevated” and the “tumor growth compared to saline only” value [2] was “significantly inhibited”. For the same compound, the “p16 and p21 expression compared with normal cells” value [3] was “both increased” and the “β-gal levels compared with the control cells” value [3] was “elevated”.

In the case of “hydroxymethyl rhodol (HMR) β-galactoside”, the fluorescence turn-on ratio [4] is listed as 1,400 fold.

With CCC[N+]1=C(/C=C/C2=C3Oc4cc(OCc5ccc(O[C@@H]6O[C@H](CO)[C@H](O)[C@H](O)[C@H]6O)cc5)c(C(F)F)cc4C=C3CCC2)C(C)(C)c2ccccc21 [NIR-BG2] the “NIR signal in normal cells” value [5] was “no significant signal”, the “NIR signal compared with NIR-BG1” value ([5]; senescent HeLa cells) was “significantly higher” and the “NIR signal in senescent cells” value ([5]; senescent HeLa cells) was “showed NIR signals”. The NIR fluorescence [6] was “high NIR fluorescence”, the “NIR signal compared with NIR-BG1” value [6] was “significantly higher” and the “signal in the NIR channel” value [7] was “background signal”. For the same compound, the “signal and accumulation in the tumors compared with NIR-BG1” value [8] was “much higher signal and extended accumulation”, the “fluorescence of senescent tumor relative to normal tumor” value [8] was 3.06 times and the “fluorescence of CPT treated tumor compared to saline treated tumor” value [8] was “significantly increased fluorescence”.

In the case of CCC[N+]1=C(/C=C/C2=C3Oc4cc(O[C@@H]5O[C@H](CO)[C@H](O)[C@H](O)[C@H]5O)ccc4C=C3CCC2)C(C)(C)c2ccccc21 [NIR-BG], the “confocal fluorescence in the NIR channel” value [9] was “no fluorescence”, the “tumor signal of activated form, CPT treatment versus saline” value [10] was “significantly higher signal” and the “flow cytometry fluorescence of CPT or radiation treated cells compared to untreated control cells” value ([11]; MCF7, probe 10 μM, λex=640 nm) was “significantly higher fluorescence”. The “flow cytometry fluorescence of CPT or radiation treated cells compared to untreated control cells” value ([12]; probe 10 μM, λex=640 nm) was “significantly higher fluorescence”, the flow cytometry fluorescence [13] was “only background signal” and the “difference in tumor signal, CT26.CL25 versus CT26.WT tumors” value ([14]; 640 nm excitation and 680 nm emission) was “minimal”. For the same compound, the “tumor signal, LacZ(+) CT26.CL25 versus CT26.WT tumors” value ([14]; 1 h after probe injection, 675 nm excitation and 720 nm emission) was “significantly higher signals”, the “colocalization of NIR signal with β-gal expression” value ([15]; CT26.CL25) was “highly colocalized” and the confocal fluorescence signal ([15]; CT26.CL25, 1-hour probe treatment) was “obvious”. The “colocalization of probe signal with lysosome and β-gal in senescent cells” value [16] was “well colocalized”, the “confocal fluorescence in CPT or radiation treated cells versus control cells without treatment” value [16] was “strikingly higher” and the “colocalization of probe signal with lysosome and β-gal in senescent cells” value [17] was “well colocalized”. The “confocal fluorescence in CPT or radiation treated cells versus control cells without treatment” value [17] was “strikingly higher”, the maximal absorption ([18]; activated probe) was 680 nm and the maximal emission ([18]; activated probe) was 710 nm. The absorption peak ([18]; unactivated probe) was “around 640 nm”, the emission peak ([18]; unactivated probe) was “around 660 nm” and the flow cytometry fluorescence [19] was “obvious fluorescence”. The “toxicity in cell culture (cell viability)” value [20] was “did not appear toxic” and the “toxicity in cell culture (cell viability)” value [21] was “did not appear toxic”.

With CCC[N+]1=C(/C=C/C2=C3Oc4cc(OCc5ccc(O[C@@H]6O[C@H](CO)[C@H](O)[C@H](O)[C@H]6O)cc5)ccc4C=C3CCC2)C(C)(C)c2ccccc21 [NIR-BG1] the “NIR signal in normal cells” value [5] was “no significant signal”, the “NIR signal in senescent cells” value ([5]; senescent HeLa cells) was “showed NIR signals” and the NIR fluorescence [6] was “high NIR fluorescence”. The “signal in the NIR channel” value [7] was “background signal”, the “fluorescence of senescent tumor relative to normal tumor” value [8] was 2.84 times and the “fluorescence of CPT treated tumor compared to saline treated tumor” value [8] was “significantly increased fluorescence”.

With C[C@@H]1C[C@@H]([C@H](O)CC2CC(=O)NC(=O)C2)C(=O)[C@@H](C)C1 [CHX, cycloheximide, reference compound] the “NIR-BG fluorescence in cells treated with both CPT and CHX compared to the CPT-treated group” value ([11]; MCF7) was “significantly reduced” and the “NIR-BG fluorescence in cells treated with both CPT and CHX compared to the CPT-treated group” value [12] was “significantly reduced”.
